According to the supplement of paper PMC9663587:

Key:
[1] = compound: CC(=O)Nc1cccc(-n2c(=O)n(C3CC3)c(=O)c3c(Nc4ccc(I)cc4F)n(C)c(=O)c(C)c32)c1
[2] = compound: COc1cccc2c1C(=O)c1c(O)c3c(c(O)c1C2=O)C[C@@](O)(C(=O)CO)C[C@@H]3O[C@H]1C[C@H](N)[C@H](O)[C@H](C)O1 [Doxorubicin]
[3] = compound: Cc1cc(Nc2ncc(Cl)c(Nc3ccccc3S(=O)(=O)C(C)C)n2)c(OC(C)C)cc1C1CCNCC1 [Ceritinib/LDK378]
[4] = compound: CC[C@@H]1C(=O)N(C)c2cnc(Nc3ccc(C(=O)N[C@H]4CC[C@H](N5CCN(CC6CC6)CC5)CC4)cc3OC)nc2N1C(C)C [Volasertib/BI6727]
[5] = compound: T1, CN(C)C/C=C/C(=O)Nc1ccc(C(=O)N2CCC[C@@H](Nc3ncc(Cl)c(-c4c[nH]c5ccccc45)n3)C2)cc1 [THZ531]
[6] = compound: T2, CC(=O)c1c(C)c2cnc(Nc3ccc(N4CCN(CCOCCOCCOCCNC(=O)COc5cccc6c5C(=O)N(C5CCC(=O)NC5=O)C6=O)CC4)cn3)nc2n(C2CCCC2)c1=O [BSJ-03-123]
[7] = compound: T3, CCOc1cc2ncc(C#N)c(Nc3ccc(OCc4ccccn4)c(Cl)c3)c2cc1NC(=O)/C=C/CN(C)C [Neratinib/HKI272]
[8] = compound: CO[C@@H](C)Cn1c(=O)n(C)c2cnc3ccc(-c4cncc(C(C)(C)O)c4)cc3c21
[9] = compound: O=C(CCCCCCC(=O)Nc1ccccc1)NO [Vorinostat]
[10] = compound: CNC(=O)c1cccc(-c2ccc3c(N4CCOC[C@@H]4C)nc(N4CCOC[C@@H]4C)nc3n2)c1 [AZD2014]
[11] = compound: CC(=O)c1c(C)c2cnc(Nc3ccc(N4CCNCC4)cn3)nc2n(C2CCCC2)c1=O
[12] = compound: Cc1nc(-c2cn3c(n2)-c2ccc(-c4cnn(C(C)(C)C(N)=O)c4)cc2OCC3)n(C(C)C)n1 [Taselisib/GDC0032]
[13] = compound: CC(C)n1nc(-c2ccc3oc(N)nc3c2)c2c(N)ncnc21 [INK128/MLN0128]
[14] = compound: CN(C)C/C=C/C(=O)Nc1ccc(O[C@@H]2CCC[C@@H](Nc3ncc(Cl)c(-c4c[nH]c5ccccc45)n3)C2)cc1 [BSJ-01-175]
[15] = compound: CNCc1ccc(-c2[nH]c3cc(F)cc4c3c2CCNC4=O)cc1 [Rucaparib]
[16] = compound: Cc1nc(Nc2ncc(C(=O)Nc3c(C)cccc3Cl)s2)cc(N2CCN(CCO)CC2)n1 [Dasatinib]
[17] = compound: CN(C)C/C=C/C(=O)Nc1ccc(C(=O)Nc2cccc(Nc3ncc(Cl)c(-c4c[nH]c5ccccc45)n3)c2)cc1 [THZ1]; test: increase in dead-cell fraction, 72 h; higher = more death;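 also: breast cancer cell lines in 384-well plates, stained with Hoechst plus LIVE/DEAD far red dye and imaged, cells above an LDR intensity threshold counted dead, Hoechst-negative corpses included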
[18] = compound: T1, THZ531; test: as above
[19] = compound: T2, BSJ-03-123; test: as above
[20] = compound: T3, Neratinib/HKI272; test: as above
[21] = compound: C=CC(=O)Nc1ccc(C(=O)Nc2[nH]nc3c2CN(C(=O)N[C@H](CN(C)C)c2ccccc2)C3(C)C)cc1 [YKL-5-124]; test: as above
[22] = compound: CCc1cnn2c(NCc3ccc[n+]([O-])c3)cc(N3CCCC[C@H]3CCO)nc12; test: as above
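For GR50, 72 h in this document: breast cancer and non-malignant breast epithelial cell lines, Deep Dye Drop or Dye Drop imaging, nine half-log doses, GR normalized to time-zero plates and DMSO-only controls.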

SUM229PE
GR50, 72 h [1]: 0.00774 µM | GR50, 72 h [2]: 0.031 µM | GR50, 72 h [3]: 1.68 µM | GR50, 72 h [4]: 0.0135 µM | GR50, 72 h [5]: 0.314 µM | GR50, 72 h [6]: 1.64 µM | GR50, 72 h [7]: 0.419 µM | GR50, 72 h [8]: 0.453 µM | GR50, 72 h [9]: 3.48 µM | GR50, 72 h [10]: 0.0116 µM | GR50, 72 h [11]: 0.956 µM | GR50, 72 h [12]: 0.377 µM | GR50, 72 h [13]: 0.047 µM | GR50, 72 h [14]: 0.0424 µM | GR50, 72 h [15]: > 10 µM | GR50, 72 h [16]: 0.094 µM | increase in dead-cell fraction ([17]; 0.0001 µM): 0.0012 | increase in dead-cell fraction ([17]; 0.0003162 µM): 0.0126 | increase in dead-cell fraction ([17]; 0.001 µM): 0.0025 | increase in dead-cell fraction ([17]; 0.003162 µM): 0.0048 | increase in dead-cell fraction ([17]; 0.01 µM): 0.0291 | increase in dead-cell fraction ([17]; 0.03162 µM): 0.0152 | increase in dead-cell fraction ([17]; 0.1 µM): 0.0835 | increase in dead-cell fraction ([17]; 0.3162 µM): 0.124 | increase in dead-cell fraction ([17]; 1 µM): 0.127 | increase in dead-cell fraction ([18]; 0.0001 µM): 0.0065 | increase in dead-cell fraction ([18]; 0.0003162 µM): 0.0019 | increase in dead-cell fraction ([18]; 0.001 µM): -0.0006 | increase in dead-cell fraction ([18]; 0.003162 µM): 0.0039 | increase in dead-cell fraction ([18]; 0.01 µM): -0.0022 | increase in dead-cell fraction ([18]; 0.03162 µM): -0.005 | increase in dead-cell fraction ([18]; 0.1 µM): -0.0018 | increase in dead-cell fraction ([18]; 0.3162 µM): 0.0175 | increase in dead-cell fraction ([18]; 1 µM): 0.0884 | increase in dead-cell fraction ([19]; 0.001 µM): 0.0053 | increase in dead-cell fraction ([19]; 0.003162 µM): 0.0041 | increase in dead-cell fraction ([19]; 0.01 µM): -0.0026 | increase in dead-cell fraction ([19]; 0.03162 µM): -0.0037 | increase in dead-cell fraction ([19]; 0.1 µM): 0.0091 | increase in dead-cell fraction ([19]; 0.3162 µM): 0.0164 | increase in dead-cell fraction ([19]; 1 µM): 0.007 | increase in dead-cell fraction ([19]; 3.162 µM): 0.0152 | increase in dead-cell fraction ([19]; 10 µM): 0.0241 | increase in dead-cell fraction ([20]; 0.0003162 µM): 0.0008 | increase in dead-cell fraction ([20]; 0.001 µM): 0.0005 | increase in dead-cell fraction ([20]; 0.003162 µM): -0.0005 | increase in dead-cell fraction ([20]; 0.01 µM): 0.0001 | increase in dead-cell fraction ([20]; 0.03162 µM): 0.0043 | increase in dead-cell fraction ([20]; 0.1 µM): 0.0062 | increase in dead-cell fraction ([20]; 0.3162 µM): 0.0046 | increase in dead-cell fraction ([20]; 1 µM): 0.0111 | increase in dead-cell fraction ([20]; 3.162 µM): 0.0132 | increase in dead-cell fraction ([21]; 0.001 µM): 0.0368 | increase in dead-cell fraction ([21]; 0.003162 µM): 0.0432 | increase in dead-cell fraction ([21]; 0.01 µM): 0.0321 | increase in dead-cell fraction ([21]; 0.03162 µM): 0.0316 | increase in dead-cell fraction ([21]; 0.1 µM): 0.0267 | increase in dead-cell fraction ([21]; 0.3162 µM): 0.0384 | increase in dead-cell fraction ([21]; 1 µM): 0.0161 | increase in dead-cell fraction ([21]; 3.162 µM): 0.0213 | increase in dead-cell fraction ([21]; 10 µM): 0.0246 | increase in dead-cell fraction ([22]; 0.0001 µM): -0.0001 | increase in dead-cell fraction ([22]; 0.0003162 µM): -0.0086 | increase in dead-cell fraction ([22]; 0.001 µM): 0.0057 | increase in dead-cell fraction ([22]; 0.003162 µM): -0.0015 | increase in dead-cell fraction ([22]; 0.01 µM): 0.0106 | increase in dead-cell fraction ([22]; 0.03162 µM): 0.0583 | increase in dead-cell fraction ([22]; 0.1 µM): 0.0925 | increase in dead-cell fraction ([22]; 0.3162 µM): 0.0682 | increase in dead-cell fraction ([22]; 1 µM): 0.0926

HCC1937
GR50, 72 h [1]: > 1 µM | GR50, 72 h [2]: 0.0128 µM | GR50, 72 h [3]: 3.53 µM | GR50, 72 h [4]: 0.0119 µM | GR50, 72 h [5]: 0.26 µM | GR50, 72 h [6]: 9.94 µM | GR50, 72 h [7]: 1.46 µM | GR50, 72 h [8]: 0.139 µM | GR50, 72 h [9]: 1.91 µM | GR50, 72 h [10]: 0.0304 µM | GR50, 72 h [11]: > 3.16 µM | GR50, 72 h [12]: 1.23 µM | GR50, 72 h [13]: 0.0515 µM | GR50, 72 h [14]: 0.302 µM | GR50, 72 h [15]: > 10 µM | GR50, 72 h [16]: 0.113 µM | increase in dead-cell fraction ([17]; 0.0001 µM): -0.0003 | increase in dead-cell fraction ([17]; 0.0003162 µM): -0.0027 | increase in dead-cell fraction ([17]; 0.001 µM): -0.0105 | increase in dead-cell fraction ([17]; 0.003162 µM): -0.0045 | increase in dead-cell fraction ([17]; 0.01 µM): -0.0053 | increase in dead-cell fraction ([17]; 0.03162 µM): -0.0002 | increase in dead-cell fraction ([17]; 0.1 µM): 0.06 | increase in dead-cell fraction ([17]; 0.3162 µM): 0.0438 | increase in dead-cell fraction ([17]; 1 µM): 0.104 | increase in dead-cell fraction ([18]; 0.0001 µM): 0.0017 | increase in dead-cell fraction ([18]; 0.0003162 µM): 0.0017 | increase in dead-cell fraction ([18]; 0.001 µM): 0.0043 | increase in dead-cell fraction ([18]; 0.003162 µM): -0.0008 | increase in dead-cell fraction ([18]; 0.01 µM): -0.0084 | increase in dead-cell fraction ([18]; 0.03162 µM): -0.0082 | increase in dead-cell fraction ([18]; 0.1 µM): 0.0051 | increase in dead-cell fraction ([18]; 0.3162 µM): 0.0511 | increase in dead-cell fraction ([18]; 1 µM): 0.0969 | increase in dead-cell fraction ([19]; 0.001 µM): 0.001 | increase in dead-cell fraction ([19]; 0.003162 µM): -0.0071 | increase in dead-cell fraction ([19]; 0.01 µM): 0.0079 | increase in dead-cell fraction ([19]; 0.03162 µM): 0 | increase in dead-cell fraction ([19]; 0.1 µM): 0.0032 | increase in dead-cell fraction ([19]; 0.3162 µM): -0.0022 | increase in dead-cell fraction ([19]; 1 µM): -0.0018 | increase in dead-cell fraction ([19]; 3.162 µM): -0.0018 | increase in dead-cell fraction ([19]; 10 µM): 0.0245 | increase in dead-cell fraction ([20]; 0.0003162 µM): 0.0017 | increase in dead-cell fraction ([20]; 0.001 µM): 0.0031 | increase in dead-cell fraction ([20]; 0.003162 µM): 0.0127 | increase in dead-cell fraction ([20]; 0.01 µM): 0.0186 | increase in dead-cell fraction ([20]; 0.03162 µM): 0.0314 | increase in dead-cell fraction ([20]; 0.1 µM): 0.0326 | increase in dead-cell fraction ([20]; 0.3162 µM): 0.0327 | increase in dead-cell fraction ([20]; 1 µM): 0.0368 | increase in dead-cell fraction ([20]; 3.162 µM): 0.0974 | increase in dead-cell fraction ([21]; 0.001 µM): 0.004 | increase in dead-cell fraction ([21]; 0.003162 µM): 0.0243 | increase in dead-cell fraction ([21]; 0.01 µM): 0.0426 | increase in dead-cell fraction ([21]; 0.03162 µM): 0.0331 | increase in dead-cell fraction ([21]; 0.1 µM): 0.0403 | increase in dead-cell fraction ([21]; 0.3162 µM): 0.0391 | increase in dead-cell fraction ([21]; 1 µM): 0.0843 | increase in dead-cell fraction ([21]; 3.162 µM): 0.0582 | increase in dead-cell fraction ([21]; 10 µM): 0.0895 | increase in dead-cell fraction ([22]; 0.0001 µM): 0.0021 | increase in dead-cell fraction ([22]; 0.0003162 µM): -0.0036 | increase in dead-cell fraction ([22]; 0.001 µM): 0.0015 | increase in dead-cell fraction ([22]; 0.003162 µM): -0.0021 | increase in dead-cell fraction ([22]; 0.01 µM): 0.0113 | increase in dead-cell fraction ([22]; 0.03162 µM): 0.156 | increase in dead-cell fraction ([22]; 0.1 µM): 0.192 | increase in dead-cell fraction ([22]; 0.3162 µM): 0.181 | increase in dead-cell fraction ([22]; 1 µM): 0.19
